Molecular target: Urease [D459Y,K653P] (Canavalia ensiformis, UniProt P07374, D459Y/K653P)
Experiment: In vitro Urease Inhibition Assay
Conditions: pH 8.2
Method: Urease inhibition activity was determined by indophenol method. […] Initially, urease enzyme and the test compound were incubated in the assay buffer for 30 minutes (in a linear reaction range) at 37 °C, 40 µL of phenol and alkali reagents were added to stop the reaction. […] All the assays were performed in triplicate.

Chain of Urease [D459Y,K653P] (P07374 whole entry D459Y/K653P): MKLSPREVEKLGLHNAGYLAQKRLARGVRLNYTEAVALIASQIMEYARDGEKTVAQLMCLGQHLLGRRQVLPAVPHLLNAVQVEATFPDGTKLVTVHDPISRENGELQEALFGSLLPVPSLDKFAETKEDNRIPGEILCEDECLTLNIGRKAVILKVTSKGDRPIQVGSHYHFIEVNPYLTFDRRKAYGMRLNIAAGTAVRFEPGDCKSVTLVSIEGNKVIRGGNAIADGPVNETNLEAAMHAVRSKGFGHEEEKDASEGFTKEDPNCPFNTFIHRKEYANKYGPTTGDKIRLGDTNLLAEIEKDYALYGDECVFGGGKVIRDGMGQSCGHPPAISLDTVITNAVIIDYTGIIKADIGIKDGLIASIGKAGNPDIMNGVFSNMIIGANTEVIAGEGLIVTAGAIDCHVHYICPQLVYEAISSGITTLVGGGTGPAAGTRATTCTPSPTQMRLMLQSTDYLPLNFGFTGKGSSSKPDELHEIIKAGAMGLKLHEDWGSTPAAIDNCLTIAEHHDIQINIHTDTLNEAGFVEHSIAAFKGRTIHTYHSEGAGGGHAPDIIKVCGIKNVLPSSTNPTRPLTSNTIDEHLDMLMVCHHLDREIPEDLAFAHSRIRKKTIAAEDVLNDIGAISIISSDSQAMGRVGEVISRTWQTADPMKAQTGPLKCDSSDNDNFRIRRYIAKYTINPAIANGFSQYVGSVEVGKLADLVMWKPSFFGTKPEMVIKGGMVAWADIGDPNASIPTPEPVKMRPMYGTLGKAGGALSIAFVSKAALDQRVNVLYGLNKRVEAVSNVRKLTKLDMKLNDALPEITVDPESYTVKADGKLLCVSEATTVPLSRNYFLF

SMILES | IC50 [µM]
NC(=S)N/N=C/Cc1ccc(OCc2ccccc2)cc1 [[(E)-{2-[4-(benzyloxy)phenyl]ethylidene}amino]thiourea (3k)] | 3.64
NC(=S)N/N=C/Cc1ccco1 [[(E)-[2-(furan-2-yl)ethylidene]amino]thiourea (3f)] | 0.58
NC(=S)N/N=C/Cc1ccccc1 [[(E)-(2-phenylethylidene)amino]thiourea (3j)] | 4.24
Cc1ccc(C/C=N/NC(N)=S)o1 [[(E)-[2-(5-methylfuran-2-yl)ethylidene]amino]thiourea (3g)] | 3.23
COc1cc(C/C=N/NC(N)=S)ccc1OCc1ccccc1 [[(E)-{2-[4-(benzyloxy)-3-methoxyphenyl]ethylidene}amino]thiourea (3l)] | 75.1
NC(=S)N/N=C/Cc1cccnc1 [[(E)-[2-(pyridin-3-yl)ethylidene]amino]thiourea (3b)] | 2.41
NC(=S)N/N=C/Cc1ccccn1 [[(E)-[2-(pyridin-2-yl)ethylidene]amino]thiourea (3a)] | 2.65
NC(=S)N/N=C/Cc1ccc2ccc3cccc4ccc1c2c34 [[(E)-[2-(pyren-1-yl)ethylidene]amino]thiourea (3m)] | 4.84
